Test results: ChEMBL document CHEMBL1201862, “PubChem BioAssay data set” (2004)
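Following 48 hours of exposure in 96-well plates, responses at five concentrations were used to interpolate endpoints linearly. GI50 marks 50% less growth.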 Active and inactive are the calls of the source. Cut-off read from the data, not from the text of the source: active = GI50 up to about 1.1 µM and inactive = higher.

Legend:
Test in all cases: NCI anticancer screen, dose series, 48 h
EKVX = test system: EKVX
MDA-MB-435 = test system: MDA-MB-435
HCT-116 = test system: HCT-116
Hs-578T = test system: Hs-578T
UACC-257 = test system: UACC-257
IGROV-1 = test system: IGROV-1
SW-620 = test system: SW-620
HOP-92 = test system: HOP-92
SF-539 = test system: SF-539
KM12 = test system: KM12
K562 = test system: K562
HCC 2998 = test system: HCC 2998
SK-OV-3 = test system: SK-OV-3
NCI-H460 = test system: NCI-H460
SK-MEL-28 = test system: SK-MEL-28
CCRF-CEM = test system: CCRF-CEM
MCF7 = test system: MCF7
OVCAR-8 = test system: OVCAR-8
Malme-3M = test system: Malme-3M
SF-295 = test system: SF-295

Row | SMILES | GI50 (EKVX) | GI50 (MDA-MB-435) | GI50 (HCT-116) | GI50 (Hs-578T) | GI50 (UACC-257) | GI50 (IGROV-1) | GI50 (SW-620) | GI50 (HOP-92) | GI50 (SF-539) | GI50 (KM12) | GI50 (K562) | GI50 (HCC 2998) | GI50 (SK-OV-3) | GI50 (NCI-H460) | GI50 (SK-MEL-28) | GI50 (CCRF-CEM) | GI50 (MCF7) | GI50 (OVCAR-8) | GI50 (Malme-3M) | GI50 (SF-295)
1 | CC(=O)NNc1nc(C)c(C(/C=C/c2ccc3c(c2)OCO3)=N/Nc2ccccc2)s1 | > 100 µM (inactive) | > 100 µM (inactive) | > 100 µM (inactive) | > 100 µM (inactive) | > 100 µM (inactive) | > 100 µM (inactive) | > 100 µM (inactive) | > 100 µM (inactive) | > 100 µM (inactive) | > 100 µM (inactive) | > 100 µM (inactive) | > 100 µM (inactive) | > 100 µM (inactive) | > 100 µM (inactive) | > 100 µM (inactive) | > 100 µM (inactive) | > 100 µM (inactive) | > 100 µM (inactive) | > 100 µM (inactive) | > 100 µM (inactive)
2 | C=C1C(=O)OC2C1C(OC(=O)/C(C)=C/C)CC(O)(CCl)C1C(OC(C)=O)C=C(C)C21O (stereo not given) | 9.75 µM (inactive) | 20.3 µM (inactive) | 7.5 µM (inactive) | 61.9 µM (inactive) | 16.5 µM (inactive) | 14.4 µM (inactive) | 3.98 µM (inactive) | 13.1 µM (inactive) | 18.2 µM (inactive) | 19.2 µM (inactive) | 7.8 µM (inactive) | 16.3 µM (inactive) | 37 µM (inactive) | 20.8 µM (inactive) | 10.5 µM (inactive) | 2.79 µM (inactive) | 6.56 µM (inactive) | 8.45 µM (inactive) | 3.34 µM (inactive) | 58.5 µM (inactive)
3 | CCCCCCOc1ccc(C(=O)N(C)O)cc1 | 20.3 µM (inactive) | 23.4 µM (inactive) | 14.9 µM (inactive) | 65.2 µM (inactive) | 36.6 µM (inactive) | 11.5 µM (inactive) | 10.2 µM (inactive) | 21.1 µM (inactive) | 15 µM (inactive) | 24 µM (inactive) | 8.83 µM (inactive) | 17.7 µM (inactive) | 18.8 µM (inactive) | 6.12 µM (inactive) | 40.7 µM (inactive) | 1.85 µM (inactive) | 28.9 µM (inactive) | 11.7 µM (inactive) | 14.1 µM (inactive) | 9.55 µM (inactive)
4 | SC1=C2CCCCCC2=NC2(CCCCCC2)S1 | 5.62 µM (inactive) | 30.5 µM (inactive) | 26.9 µM (inactive) | 11.6 µM (inactive) | 11 µM (inactive) | 44.1 µM (inactive) | 32.3 µM (inactive) | 21.1 µM (inactive) | 35.1 µM (inactive) | 18.4 µM (inactive) | 12.2 µM (inactive) | 23.3 µM (inactive) | 62.8 µM (inactive) | 17.3 µM (inactive) | 72.9 µM (inactive) | 33.6 µM (inactive) | 19 µM (inactive) | 28.3 µM (inactive) | 22 µM (inactive) | 23.6 µM (inactive)
5 | CN(CC(N)=O)C(=O)N(CCCl)N=O [SARCNU] | > 100 µM (inactive) | > 100 µM (inactive) | > 100 µM (inactive) | > 100 µM (inactive) | > 100 µM (inactive) | > 100 µM (inactive) | > 100 µM (inactive) | > 77.6 µM (inactive) | 38.3 µM (inactive) | > 100 µM (inactive) | > 100 µM (inactive) | > 100 µM (inactive) | > 83.9 µM (inactive) | 41.1 µM (inactive) | > 100 µM (inactive) | > 81.8 µM (inactive) | > 100 µM (inactive) | > 100 µM (inactive) | > 100 µM (inactive) | > 76.7 µM (inactive)
6 | COc1cc2c(cc1OC)C/C(=N\O)c1cc(OC)c(OC)cc1/C=C\2 | 10.7 µM (inactive) | 0.822 µM (active) | 3.82 µM (inactive) | 2.12 µM (inactive) | 10.4 µM (inactive) | 3.37 µM (inactive) | 3.48 µM (inactive) | 43.8 µM (inactive) | 4.22 µM (inactive) | 5.2 µM (inactive) | 4.86 µM (inactive) | 2.95 µM (inactive) | 13.1 µM (inactive) | 3.15 µM (inactive) | 4.6 µM (inactive) | 13.1 µM (inactive) | 5.27 µM (inactive) | 10.4 µM (inactive) | 1.48 µM (inactive) | 3.74 µM (inactive)
7 | CC(C)OP(=O)(OC(C)C)C(C(C)C)N(C)/C(N)=N/C#N (stereo not given) | > 100 µM (inactive) | > 100 µM (inactive) | > 100 µM (inactive) | > 100 µM (inactive) | > 100 µM (inactive) | > 100 µM (inactive) | > 100 µM (inactive) | > 100 µM (inactive) | > 100 µM (inactive) | > 100 µM (inactive) | > 100 µM (inactive) | > 100 µM (inactive) | > 100 µM (inactive) | > 100 µM (inactive) | > 100 µM (inactive) | > 100 µM (inactive) | > 100 µM (inactive) | > 100 µM (inactive) | > 100 µM (inactive) | > 100 µM (inactive)
8 | CCOC(=O)Cc1csc(NC(NC(=O)OCC)(C(=O)OCC)C(F)(F)F)n1 (stereo not given) | > 100 µM (inactive) | > 100 µM (inactive) | > 100 µM (inactive) | > 100 µM (inactive) | > 100 µM (inactive) | > 100 µM (inactive) | > 100 µM (inactive) | 56.6 µM (inactive) | > 100 µM (inactive) | > 100 µM (inactive) | > 100 µM (inactive) | > 100 µM (inactive) | > 100 µM (inactive) | > 100 µM (inactive) | > 100 µM (inactive) | > 100 µM (inactive) | > 100 µM (inactive) | > 100 µM (inactive) | > 100 µM (inactive) | > 100 µM (inactive)
